Literature values, collected in PMC11354262 (International Journal of Molecular Sciences, 2024).

Legend:
[1] = hydrolysis by enzymes in intestine and liver

Compound: CCCCCCCCCCCCCCCC(=O)NCCO [PEA, Palmitoylethanolamide]
- logarithm of partition coefficient (log P): > 5
- solubility in water: practically insoluble in water
- lipid half-life [1]: about 25 min
